# Measurements published in US9145391B2, “Bipyridylaminopyridines as Syk inhibitors” (Merck Sharp & Dohme Corp., priority 2011, dated 2015).
# Molecular target: recombinant human GST-Syk (Homo sapiens (Human), UniProt P43405)
# Assay: Homogeneous Time-Resolved Fluorescence (HTRF) assay for the recombinant human Syk enzyme
# Assay type: biochemical
# Settings: recombinant human GST-Syk 5 pM, ATP 25 μM, read-out: rhSyk IC50
# Description: Syk inhibition may be determined using the following assay protocol: Homogeneous Time-Resolved Fluorescence (HTRF) Assay for the Recombinant Human Syk Enzyme: A recombinant GST-hSyk fusion protein was used to measure potency of compounds to inhibit human Syk activity. […] To initiate the reaction the biotinylated substrate peptide (250 nM final concentration) that contains the phosphorylation site for Syk was added with magnesium (5 mM final concentration) and ATP (25 μM final concentration). […] Final volume of the quenching solution was 10 μL.
row,SMILES,IC50
1,Cc1cc(Nc2cc(C(F)(F)F)ccn2)nc(-c2ccc(NC3CCN(C(=O)c4nccc5ccccc45)CC3)nc2)c1 [Example 4-65],20 nM
2,Cc1cc(Nc2cc(C(F)(F)F)ccn2)nc(-c2ccc(C3(O)CCC(C(=O)O)C(C)(C)C3)nc2)c1 (stereo not drawn) [Example 1-25],1 nM
3,Cc1cc(Nc2cc(C(F)(F)F)ccn2)nc(-c2ccc(NC3CCN(C(=O)c4cccc(C(N)=O)c4)CC3)nc2)c1 [Example 4-27],3 nM
4,"CCCCCCOC(=O)[C@H]1CC[C@H](C(C)(O)c2ccc(-c3cc(C)cc(Nc4cc(C(F)F)ccn4)n3)cn2)CC1 (single isomer, unassigned) [Example 19-9, hexyl trans-4-[(1R or 1S)-1-(6-{[4-(difluoromethyl)pyridin-2-yl]amino}-4-methyl-2,3′-bipyridin-6′-yl)-1-hydroxyethyl] cyclohexanecarboxylate]",190 nM
5,Cc1cc(Nc2cc(C(F)(F)F)ccn2)nc(-c2ccc(NC3CCN(C(=O)c4cc(-c5ccccc5)n[nH]4)CC3)nc2)c1 [Example 4-10],14 nM
6,Cc1cc(Nc2cc(C(F)(F)F)ccn2)nc(-c2ccc(NC3CCN(C(=O)Cc4cccc(C#N)c4)CC3)nc2)c1 [Example 4-82],3 nM
7,Cc1cc(Nc2cc(C(F)(F)F)ccn2)nc(-c2ccc(NC3CCN(C(=O)c4ccc5c(c4)CNC5=O)CC3)nc2)c1 [Example 4-5],2 nM
8,Cc1cc(Nc2cc(C(F)(F)F)ccn2)nc(-c2ccc(NC3CCN(C(=O)c4cccc5ccccc45)CC3)nc2)c1 [Example 4-59],61 nM
9,Cc1cc(Nc2cc(C(F)(F)F)ccn2)nc(-c2ccc(NC3CCN(C(=O)c4cccc5c4C(=O)c4ccccc4-5)CC3)nc2)c1 [Example 4-43],29 nM
10,Cc1cc(Nc2cc(C(F)(F)F)ccn2)nc(-c2ccc(NC3CCN(C(=O)Cc4cccc(Cl)c4)CC3)nc2)c1 [Example 4-107],13 nM
11,Cc1cc(Nc2cc(C(F)(F)F)ccn2)nc(-c2ccc(NC3CCN(C(=O)c4cccc5c6c([nH]c45)CCCC6)CC3)nc2)c1 [Example 4-119],19 nM
12,"Cc1cc(Nc2cc(C(F)F)ccn2)nc(-c2ccc(C(C)(O)[C@H]3CC[C@H](C(=O)OCc4oc(=O)oc4C)CC3)nc2)c1 (single isomer, unassigned) [Example 19-21, (5-methyl-2-oxo-1,3-dioxol-4-yl)methyl trans-4-[(1R or 1S)-1-(6-{[4-(difluoromethyl)pyridin-2-yl]amino}-4-methyl-2,3′-bipyridin-6′-yl)-1-hydroxyethyl] cyclohexanecarboxylate]",5.2 nM
13,Cc1cc(Nc2cc(C(F)(F)F)ccn2)nc(-c2ccc(NC3CCN(C(=O)c4cccc(Oc5ccccc5)c4)CC3)nc2)c1 [Example 4-50],97 nM
14,Cc1cc(Nc2cc(C(F)(F)F)ccn2)nc(-c2ccc(NC3CCN(C(=O)c4cccc5[nH]ncc45)CC3)nc2)c1 [Example 4-120],9 nM
15,Cc1cc(Nc2cc(C(F)(F)F)ccn2)nc(-c2ccc(NC3CCN(C(=O)OC(C)(C)C)CC3)nc2)c1 [Example 2-4],91 nM
16,Cc1cc(Nc2cc(C(F)(F)F)ccn2)nc(-c2ccc(N3CC(C4CCCC(C(=O)O)C4)C3)nc2)c1 (stereo not drawn) [Example 2-21],2 nM
17,"Cc1cc(Nc2cc(C(F)F)ccn2)nc(-c2ccc(C(C)(O)[C@H]3CC[C@H](C(=O)OCC4CCCCC4)CC3)nc2)c1 (single isomer, unassigned) [Example 19-14, cyclohexylmethyl trans-4-[(1R or 1S)-1-(6-{[4-(difluoromethyl)pyridin-2-yl]amino}-4-methyl-2,3′-bipyridin-6′-yl)-1-hydroxyethyl] cyclohexanecarboxylate]",210 nM
18,Cc1cc(Nc2cc(C(F)(F)F)ccn2)nc(-c2ccc(NC3CCN(C(=O)Cc4ccccc4C#N)CC3)nc2)c1 [Example 4-70],6 nM
19,Cc1cc(Nc2cc(C(F)(F)F)ccn2)nc(-c2ccc(NC3CCN(C(=O)c4ccc(Oc5ccccc5)cc4)CC3)nc2)c1 [Example 4-114],23 nM
20,Cc1cc(Nc2cc(C(F)(F)F)ccn2)nc(-c2ccc(NC3CCN(C(=O)c4[nH]c5ccccc5c4C)CC3)nc2)c1 [Example 4-6],22 nM

row,SMILES,IC50
1,Cc1cc(Nc2cc(C(F)(F)F)ccn2)nc(-c2ccc(NC3CCN(C(=O)Cc4cccc5ccccc45)CC3)nc2)c1 [Example 4-52],53 nM
2,CC(=O)N1CCC(Nc2ccc(-c3cc(C)cc(Nc4cc(C(F)(F)F)ccn4)n3)cn2)CC1 [Example 4-16],4 nM
3,Cc1cc(Nc2cc(C(F)(F)F)ccn2)nc(-c2ccc(NC3CCN(C(=O)c4cc5ccccc5n4C)CC3)nc2)c1 [Example 4-113],26 nM
4,Cc1cc(Nc2cc(C(F)(F)F)ccn2)nc(-c2ccc(C3(O)CCC(C(=O)O)C(C)(C)C3)nc2)c1 (stereo not drawn) [Example 1-23],29 nM
5,Cc1cc(Nc2cc(C(F)(F)F)ccn2)nc(-c2ccc(NC3CCN(C(=O)Cc4ccc(-c5ccccc5)cc4)CC3)nc2)c1 [Example 4-69],138 nM
6,"Cc1cc(Nc2cc(C(F)F)ccn2)nc(-c2ccc(C(C)(O)[C@H]3CC[C@@H](C(=O)O)CC3)nc2)c1 (single isomer, unassigned) [Example 12-3, cis-4-[(1R or 1S)-(6-{[4-(difluoromethyl)pyridin-2-yl]amino}-4-methyl-2,3′-bipyridin-6′-yl)-1-hydroxyethyl]cyclohexanecarboxylic acid]",1 nM
7,Cc1cc(Nc2cc(C(F)(F)F)ccn2)nc(-c2ccc(NC3CCN(C(=O)c4cccc(S(C)(=O)=O)c4)CC3)nc2)c1 [Example 4-46],4 nM
8,Cc1cc(Nc2cc(C(F)(F)F)ccn2)nc(-c2ccc(NC3CCN(C(=O)Cc4ccc(O)c(F)c4)CC3)nc2)c1 [Example 4-116],4 nM
9,Cc1cc(Nc2cc(C(F)(F)F)ccn2)nc(-c2ccc(NC3CCN(C(=O)c4ccc5sc(C)nc5c4)CC3)nc2)c1 [Example 4-14],6 nM
10,COc1cccc(C(=O)N2CCC(Nc3ccc(-c4cc(C)cc(Nc5cc(C(F)(F)F)ccn5)n4)cn3)CC2)c1 [Example 4-109],6 nM
11,Cc1cc(Nc2cc(C(F)(F)F)ccn2)nc(-c2ccc(NC3CCN(C(=O)c4cccc5cc(O)ccc45)CC3)nc2)c1 [Example 4-39],7 nM
12,Cc1cc(Nc2cc(C(F)(F)F)ccn2)nc(-c2ccc(NC3CCN(C(=O)c4ccccc4Cn4cncn4)CC3)nc2)c1 [Example 4-26],7 nM
13,Cc1cc(Nc2cc(C(F)(F)F)ccn2)nc(-c2ccc(N3CC[C@H](NC(=O)c4ccc5cc[nH]c5c4)C3)nc2)c1 [Example 6-1],17 nM
14,Cc1cc(Nc2cc(C(F)(F)F)ccn2)nc(-c2ccc(NC3CCN(C(=O)c4ccncc4)CC3)nc2)c1 [Example 4-84],4 nM
15,"Cc1cc(Nc2cc(C(F)(F)F)ccn2)nc(-c2ccc(C[C@H]3CC[C@H](C(=O)O)CC3)nc2)c1 [Example 10 trans isomer, trans-4-[(4-methyl-6-{[4-(trifluoromethyl)pyridin-2-yl]amino}-2,3′-bipyridin-6′-yl)methyl]cyclohexanecarboxylic acid]",< 0.5 nM
16,Cc1cc(Nc2cc(C(F)(F)F)ccn2)nc(-c2ccc(N3CCCC3C(=O)O)nc2)c1 (stereo not drawn) [Example 2-10],3 nM
17,Cc1cc(Nc2cc(C(F)(F)F)ccn2)nc(-c2ccc(NC3CCN(C(=O)c4cccc(Cl)c4)CC3)nc2)c1 [Example 4-105],245 nM
18,Cc1cc(Nc2cc(C(F)(F)F)ccn2)nc(-c2ccc(C3(O)CCC(C(=O)O)C(C)(C)C3)nc2)c1 (stereo not drawn) [Example 1-26],1 nM
19,Cc1cc(Nc2cc(C(F)(F)F)ccn2)nc(-c2ccc(NC3CCN(C(=O)c4nccc5ncccc45)CC3)nc2)c1 [Example 4-35],3 nM
